In patent publication US20060069132A1, “Azolecarboxamide herbicides” (priority 2004, published 2006):

Assays:
[1] = tested on: barnyardgrass; assay: Test B pre-/postemergence herbicide test; type: in vivo, Echinochloa crus-galli
How it was run: (§1)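 Evaluation is visual, comparing treated with control plants on a scale where 0 means no effect and 100 means full control. Treatments were preemergence, or postemergence on seedlings 2–18 cm tall, and held 13–15 days in the greenhouse.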

[2] = tested on: Surinam grass; assay: Test B pre-/postemergence herbicide test; type: in vivo, Urochloa decumbens
How it was run: (§2)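 Greenhouse pot assay with simultaneous preemergence (treated seed) and postemergence (2–18 cm seedlings) applications of surfactant-containing, non-phytotoxic solvent formulations. Response scored visually 13–15 days later on a 0–100 scale, 100 meaning complete control.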

[3] = tested on: cocklebur; assay: Test B pre-/postemergence herbicide test; type: in vivo, Xanthium strumarium
How it was run: as §1

[4] = tested on: corn; assay: Test B pre-/postemergence herbicide test; type: in vivo, Zea mays
How it was run: as §2

[5] = tested on: large crabgrass; assay: Test B pre-/postemergence herbicide test; type: in vivo, Digitaria sanguinalis
How it was run: as §2

[6] = tested on: lambsquarters; assay: Test B pre-/postemergence herbicide test; type: in vivo, Chenopodium album; conditions: for Lambsquarters plant response rating (0 to 100 scale): 0 = no effect, 100 = complete control
How it was run: as §2

[7] = tested on: morningglory; assay: Test B pre-/postemergence herbicide test; type: in vivo, Ipomoea coccinea
How it was run: as §1

[8] = tested on: velvetleaf; assay: Test B pre-/postemergence herbicide test; type: in vivo, Abutilon theophrasti
How it was run: as §2

[9] = tested on: blackgrass; assay: Test B postemergence herbicide test; type: in vivo, Alopecurus myosuroides
How it was run: (§3)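 Each value is a visual 0–100 response rating taken against controls 13 to 15 days after treatment in the greenhouse. Plants received formulated chemical postemergence at the 1- to 4-leaf stage or, in flooded paddy, at the 2-leaf stage.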

[10] = tested on: wheat; assay: Test B postemergence herbicide test; type: in vivo, Triticum aestivum; parameters: key to Wheat plant response rating: 0 = no effect, 100 = complete control
How it was run: as §3

[11] = tested on: wild oat; assay: Test B postemergence herbicide test; type: in vivo, Avena fatua
How it was run: as §3

[12] = tested on: rice; assay: Test B flooded paddy test; type: in vivo, Oryza sativa; conditions: 1000 g ai/ha, scale 0 to 100 (0 no effect, 100 complete control)
How it was run: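 Greenhouse test; postemergence application to plants at 1–4 leaves (2–18 cm); paddy species at 2 leaves; evaluated visually vs controls at 13–15 days; scale 0–100 (100 = complete control).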

[13] = tested on: small flower umbrella sedge; assay: Test B flooded paddy test; type: in vivo, Cyperus difformis; conditions: 1000 g ai/ha, scale 0 to 100 (0 no effect, 100 complete control)
How it was run: as §3

[14] = tested on: ducksalad; assay: Test B flooded paddy test; type: in vivo, Heteranthera limosa; conditions: 1000 g ai/ha, scale 0 to 100 (0 no effect, 100 complete control)
How it was run: as §3

[15] = tested on: barnyardgrass; assay: Test B flooded paddy test; type: in vivo, Echinochloa crus-galli; conditions: 1000 g ai/ha, scale 0 to 100 (0 no effect, 100 complete control)
How it was run: as §3

[16] = 125 g ai/ha, 0 = no effect, 100 = complete control, preemergence
[17] = 125 g ai/ha, visual rating, scale 0 (no effect) to 100 (complete control), postemergence
[18] = 500 g ai/ha, visual rating, 0 = no effect, 100 = complete control, preemergence
[19] = postemergence, 500 g ai/ha, scale 0 to 100, 0 is no effect, 100 is complete control
[20] = 500 g ai/ha, visual rating 0-100, 0 no effect, 100 complete control, preemergence
[21] = postemergence, 125 g ai/ha, visual rating, scale 0 (no effect) to 100 (complete control)
[22] = postemergence, 500 g ai/ha, visual rating, scale 0 (no effect) to 100 (complete control)
[23] = Postemergence, 125 g ai/ha, scale 0 (no effect) to 100 (complete control)
[24] = Postemergence, 500 g ai/ha, visual rating after 13 to 15 days, scale 0 (no effect) to 100 (complete control)
[25] = Preemergence, 500 g ai/ha, scale 0 to 100
[26] = preemergence, 125 g ai/ha, 0 to 100 scale, 0 is no effect, 100 is complete control

With `CCOC(=O)c1cccc(NC(=O)c2cc(C3(C)CC3)nn2CC)c1` [Compound 295] the “Barnyardgrass plant response rating (0 to 100 scale)” value [1, 16] was 10, the “Barnyardgrass plant response rating” value [1, 17] was 30 and the “Plant response rating, Barnyardgrass” value [1, 18] was 20. For the same molecule, the “Barnyardgrass plant response rating” value [1, 19] was 50, the “Surinam Grass plant response rating (0 to 100 scale)” value [2, 16] was 0 and the “Surinam Grass plant response rating” value [2, 17] was 50. The “Plant response rating, Surinam Grass” value [2, 18] was 20, the “Surinam Grass plant response rating” value [2, 19] was 60 and the “Cocklebur plant response rating (0 to 100 scale)” value [3, 16] was 0. For the same molecule, the “Cocklebur plant response rating” value [3, 17] was 40, the “Plant response rating, Cocklebur” value [3, 18] was 0 and the “Cocklebur plant response rating” value [3, 19] was 90. For the same molecule, the “Corn plant response rating (0 to 100 scale)” value [4, 16] was 0, the “Corn plant response rating” value [4, 17] was 10 and the “Plant response rating, Corn” value [4, 18] was 10. For the same molecule, the “Corn plant response rating” value [4, 19] was 20, the “Crabgrass, Large plant response rating (0 to 100 scale)” value [5, 16] was 10 and the “Crabgrass, Large plant response rating” value [5, 17] was 30. The “Plant response rating, Crabgrass, Large” value [5, 18] was 80, the “Crabgrass, Large plant response rating” value [5, 19] was 60 and the “Lambsquarters plant response rating (0 to 100 scale)” value ([6]; 125 g ai/ha, preemergence) was 0. The “Lambsquarters plant response rating” value [6, 17] was 40, the “Lambsquarters plant response rating” value [6, 19] was 60 and the “Morningglory plant response rating (0 to 100 scale)” value [7, 16] was 0. For the same molecule, the “Morningglory plant response rating” value [7, 17] was 50, the “Plant response rating, Morningglory” value [7, 18] was 20 and the “Morningglory plant response rating” value [7, 19] was 100. The “Velvetleaf plant response rating” value [8, 17] was 70, the “Plant response rating, Velvetleaf” value [8, 18] was 60 and the “Velvetleaf plant response rating” value [8, 19] was 100. For the same molecule, the “Blackgrass plant response rating” value [9, 17] was 30, the “Blackgrass plant response rating” value [9, 19] was 40 and the “Wheat plant response rating” value ([10]; 125 g ai/ha; visual rating, scale 0 (no effect) to 100 (complete control); postemergence) was 20. The “Wheat plant response rating” value ([10]; postemergence, 500 g ai/ha; scale 0 to 100, 0 is no effect, 100 is complete control) was 30, the “Oat, Wild plant response rating” value [11, 17] was 40 and the “Oat, Wild plant response rating” value [11, 19] was 50. For the same molecule, the “Rice plant response rating” value [12] was 50, the “Sedge, Umbrella plant response rating” value [13] was 80 and the “Ducksalad plant response rating” value [14] was 70. The “Barnyardgrass plant response rating” value [15] was 60.

`CCc1nc(C(C)(C)C)sc1C(=O)Nc1cccc(C(=O)NCCF)c1` [Compound 209] was tested, and the “Barnyardgrass plant response rating (0 to 100 scale)” value [1, 16] was 50, the “Plant response rating, Barnyardgrass” value [1, 20] was 90 and the “Barnyardgrass plant response rating” value [1, 21] was 10. For the same molecule, the “Barnyardgrass plant response rating” value [1, 22] was 20, the “Surinam Grass plant response rating (0 to 100 scale)” value [2, 16] was 20 and the “Plant response rating, Surinam Grass” value [2, 20] was 50. The “Surinam Grass plant response rating” value [2, 21] was 20, the “Surinam Grass plant response rating” value [2, 22] was 20 and the “Cocklebur plant response rating (0 to 100 scale)” value [3, 16] was 10. For the same molecule, the “Plant response rating, Cocklebur” value [3, 20] was 30, the “Cocklebur plant response rating” value [3, 21] was 30 and the “Cocklebur plant response rating” value [3, 22] was 40. The “Corn plant response rating (0 to 100 scale)” value [4, 16] was 0, the “Plant response rating, Corn” value [4, 20] was 50 and the “Corn plant response rating” value [4, 21] was 20. The “Corn plant response rating” value [4, 22] was 30, the “Crabgrass, Large plant response rating (0 to 100 scale)” value [5, 16] was 40 and the “Plant response rating, Crabgrass, Large” value [5, 20] was 60. For the same molecule, the “Crabgrass, Large plant response rating” value [5, 21] was 20, the “Crabgrass, Large plant response rating” value [5, 22] was 20 and the “Lambsquarters plant response rating (0 to 100 scale)” value ([6]; 125 g ai/ha, preemergence) was 60. The “Plant response rating, Lambsquarters” value [6, 20] was 100, the “Lambsquarters plant response rating” value [6, 21] was 40 and the “Lambsquarters plant response rating” value [6, 22] was 40. The “Morningglory plant response rating (0 to 100 scale)” value [7, 16] was 10, the “Plant response rating, Morningglory” value [7, 20] was 20 and the “Morningglory plant response rating” value [7, 21] was 20. For the same molecule, the “Morningglory plant response rating” value [7, 22] was 20, the “Velvetleaf plant response rating (0 to 100 scale)” value [8, 16] was 10 and the “Plant response rating, Velvetleaf” value [8, 20] was 50. The “Velvetleaf plant response rating” value [8, 21] was 20, the “Velvetleaf plant response rating” value [8, 22] was 20 and the “Blackgrass plant response rating” value [9, 21] was 0. The “Blackgrass plant response rating” value [9, 22] was 20, the “Wheat plant response rating” value ([10]; postemergence, 125 g ai/ha; visual rating, scale 0 (no effect) to 100 (complete control)) was 10 and the “Wheat plant response rating” value ([10]; postemergence, 500 g ai/ha; visual rating, scale 0 (no effect) to 100 (complete control)) was 20. The “Oat, Wild plant response rating” value [11, 21] was 20, the “Oat, Wild plant response rating” value [11, 22] was 20 and the “Rice plant response rating” value ([12]; visual rating, 13 to 15 days) was 50. The “Sedge, Umbrella plant response rating” value ([13]; visual rating, 13 to 15 days) was 90, the “Ducksalad plant response rating” value ([14]; visual rating, 13 to 15 days) was 80 and the “Barnyardgrass plant response rating” value ([15]; visual rating, 13 to 15 days) was 60.

For `CCn1nc(C(C)(C)C)cc1C(=O)Nc1cccc(C(=O)NC2CC2)c1` [Compound 44], the “Barnyardgrass plant response rating” value [1, 23] was 20, the “Plant response rating, Barnyardgrass” value [1, 24] was 60 and the “Barnyardgrass plant response rating” value [1, 25] was 100. For the same molecule, the “Plant response rating, Surinam Grass” value [2, 24] was 20, the “Surinam Grass plant response rating” value [2, 25] was 40 and the “Plant response rating, Surinam Grass” value [2, 26] was 0. For the same molecule, the “Cocklebur plant response rating” value [3, 23] was 40, the “Plant response rating, Cocklebur” value [3, 24] was 80 and the “Cocklebur plant response rating” value [3, 25] was 20. The “Corn plant response rating” value [4, 23] was 20, the “Plant response rating, Corn” value [4, 24] was 30 and the “Corn plant response rating” value [4, 25] was 0. The “Crabgrass, Large plant response rating” value [5, 23] was 20, the “Plant response rating, Crabgrass, Large” value [5, 24] was 90 and the “Crabgrass, Large plant response rating” value [5, 25] was 100. For the same molecule, the “Lambsquarters plant response rating” value [6, 23] was 80, the “Plant response rating, Lambsquarters” value [6, 24] was 90 and the “Lambsquarters plant response rating” value [6, 25] was 100. The “Plant response rating, Lambsquarters” value [6, 26] was 80, the “Morningglory plant response rating” value [7, 23] was 30 and the “Plant response rating, Morningglory” value [7, 24] was 90. The “Morningglory plant response rating” value [7, 25] was 10, the “Plant response rating, Morningglory” value [7, 26] was 0 and the “Plant response rating, Velvetleaf” value [8, 24] was 80. For the same molecule, the “Velvetleaf plant response rating” value [8, 25] was 100, the “Plant response rating, Velvetleaf” value [8, 26] was 20 and the “Blackgrass plant response rating” value [9, 23] was 10. The “Plant response rating, Blackgrass” value [9, 24] was 20, the “Plant response rating, Wheat” value ([10]; Postemergence, 500 g ai/ha; visual rating after 13 to 15 days, scale 0 (no effect) to 100 (complete control)) was 20 and the “Oat, Wild plant response rating” value [11, 23] was 20. For the same molecule, the “Plant response rating, Oat, Wild” value [11, 24] was 20, the “Rice plant response rating” value ([12]; visual rating, 13 to 15 days) was 70 and the “Sedge, Umbrella plant response rating” value ([13]; visual rating, 13 to 15 days) was 70. For the same molecule, the “Ducksalad plant response rating” value ([14]; visual rating, 13 to 15 days) was 70 and the “Barnyardgrass plant response rating” value ([15]; visual rating, 13 to 15 days) was 70.
